For data set [1], the system named is mouse β-cell insulinoma line MIN-6. The data set can be described thus: tert-butyl hydroperoxide (tBHP) challenge of MIN-6 cells, MTT viability assay. The format is cell-based. Conditions: compound added 30 minutes prior to tBHP, FIG. 3. As to the method: The mouse β-cell insulinoma line MIN-6 was maintained in high glucose DMEM supplemented with 15% heat-inactivated foetal bovine serum (FBS) and 70 μM 2-mercaptoethanol.
(§1) MIN-6 cells were plated into a 96-well tissue culture plate at a density of 2.0×10^4 cells per well. The cells were cultured at 37° C. in an atmosphere of 5% CO2 for 20-24 hours before the addition of AO3003, 30 minutes prior to the onset of the tert-butyl hydroperoxide (tBHP) challenge. The cells were incubated with tBHP for 30 minutes at 37° C. (5% CO2) before 20 μl 5 mg/ml 3-(4,5-Dimethyl-2-thiazolyl)-2,5-diphenyl-2H-tetrazolium bromide (MTT) was added to each of the treatment wells. The cells were incubated for a further 3 hours at 37° C. (5% CO2) before all the supernatant was removed from the cells and the insoluble MTT formazan dye, produced by the reduction of MIT by viable cells, was solubilised in 200 μl dimethyl sulfoxide (DMSO). The absorbance of the resulting solution was measured at 540 nm and was proportional to the number of viable […] cells remaining after the tBHP challenge. DMEM is the control viability of cells without peroxide or tBHP.

Data set [2] has as its system mouse embryonic stem cell line E14Tg2a. The data set can be described thus: tert-butyl hydroperoxide (tBHP) challenge of mES cells, MTT viability assay. Type of data set: cell-based. The method, then: The mouse embryonic stem cell line E14Tg2a was maintained in a pluripotent state in knockout (KO) DMEM supplemented with leukaemia inhibitory factor (LIF), 15% (v/v) knockout serum replacement, 0.1 mM MEM non-essential amino acids, 2 mM 1-glutamine and 140 μM 2-mercaptoethanol in tissue culture flasks coated with 0.1% (w/v) gelatin.
as §1, with “mES cells were” for “MIN-6 cells were”, “into a 0.1% (w/v) gelatin coated 96-well tissue” for “into a 96-well tissue”, “density of 1.5×10^4 cells per” for “density of 2.0×10^4 cells per”, “tBHP for 90 minutes at” for “tBHP for 30 minutes at”, “reduction of MTT by viable” for “reduction of MIT by viable”, “tBHP challenge.” for “tBHP challenge. DMEM is the control viability of cells without peroxide or tBHP.”
mES cells were plated into a 0.1% (w/v) gelatin coated 96-well tissue culture plate at a density of 7.5×10^3 cells per well. The cells were cultured at 37° C. in an atmosphere of 5% CO2 for 20-24 hours before the addition of AO3003, 20 hours prior to the onset of the tert-butyl hydroperoxide (tBHP) challenge. The cells were incubated with tBHP for 90 minutes at 37° C. (5% CO2) before 20 μl 5 mg/ml 3-(4,5-Dimethyl-2-thiazolyl)-2,5-diphenyl-2H-tetrazolium bromide (MTT) was added to each of the treatment wells. The cells were incubated for a further 3 hours at 37° C. (5% CO2) before all the supernatant was removed from the cells and the insoluble MIT formazan dye, produced by the reduction of MTT by viable cells, was solubilised in 200 μl dimethyl sulfoxide (DMSO). The absorbance of the resulting solution was measured at 540 nm and was proportional to the number of viable mES cells remaining after the tBHP challenge.

The text below walks through data of patent publication US9359323B2, “Compound” (priority 2010, dated 2016).

Consider `O=c1c(O)c(-c2cc(O)c(O)c(O)c2)oc2cc(C3CCCCC3)ccc12` [AO3003], for which the “protection against oxidative stress” value is “protects against oxidative stress” in data set [1]; “protects against oxidative stress” in data set [2] (mouse embryonic stem cell line, tBHP, summary of Experiments 1 and 2). The “reversal of oxidative stress-induced loss of viability” value in data set [2] (2 μM, compound added 20 hours prior to tBHP challenge, MTT, FIG. 2) is “significantly reverses oxidative stress-induced loss of viability”. Also, the “toxicity (control cell viability without tBHP)” value in data set [2] (cell viability at 24 h after 0, 1 and 2 μM exposure) is given as “not toxic”. Further, the “period the compound remains bioprotective once incorporated into the cell” value in data set [2] (mES cells, tBHP challenge, Experiment 2) is recorded as above 24 h.
